We go through 34 compounds from PubChem BioAssay AID489010 (Southern Research Specialized Biocontainment Screening …, 2010).

Structures are written as SMILES. Values joined by “and” are separate entries in the source; they are usually repeats but may differ in a detail not shown here. Identical values can stand only once. Active and inactive are the calls of the source. The rule behind the calls is not given here.

Test system in one test: not listed separately
Nature of the test: M. tuberculosis H37Rv growth inhibition, dose response, strain H37Rv (AID 489010). Particulars: M. tuberculosis H37Rv growth inhibition; at 100 µM (top of the series).
For `CCOc1cc(C2C(C#N)=C(N)Oc3n[nH]c(-c4ccccc4)c32)ccc1O` (centres undefined), the growth inhibition is 4.87% (inactive).
The same measure, in the same setting: the figure for `Fc1ccc(Nc2nc(Oc3ccccc3F)nc(N3CCCC3)n2)cc1` is -4.07% (inactive).
On the same count and under the same terms, the figure for `N#Cc1ccc(-n2c(-c3ccccc3)nnc2-c2ccccc2)cc1C#N` is 6.39% (inactive); for `N#CC1=C(N)Oc2n[nH]c(-c3ccccc3)c2C1c1cccc(OC(=O)N2CCOCC2)c1` (centres undefined) it is -2.13% (inactive).
Take `N#CC1=C(N)Oc2n[nH]c(-c3ccccc3)c2C1c1ccsc1` (centres undefined): the growth inhibition was 7.24% (inactive).
Same read-out and setting: the figure for `O=c1cc(-c2ccc(Br)cc2)[nH][nH]1` is -4.27% (inactive).
Same read-out and setting: for `Cc1cc(-c2[nH]nc3c2C(c2ccc(Cl)cc2)C(C#N)=C(N)O3)c(C)s1` (centres undefined) the value was 8.76% (inactive).
The same measure, in the same setting: the figure for `O=c1cc(-c2ccc(Cl)c(Cl)c2)[nH][nH]1` is 1.79% (inactive).
In the case of `C/C(=N/NC(=O)Cc1cc(=O)[nH][nH]1)c1ccc([N+](=O)[O-])cc1`, the growth inhibition is -1.21% (inactive).
Still for that read-out and setting: for `O=C(CSc1nnc(-c2ccccc2Cl)o1)Oc1ccc(Br)cc1` the value was 0.13% (inactive); for `Cc1ccc(SCc2[nH]nc3c2C2(CCSCC2)C(C#N)=C(N)O3)cc1`, 6.38% (inactive); for `O=C(CSCc1cc(=O)[nH][nH]1)Nc1ccc(F)cc1`, 0.76% (inactive).
On the same count and under the same terms, for `CCOc1ccccc1C1C(C#N)=C(N)Nc2onc(-c3ccccc3)c21` (centres undefined) the value was -3.07% (inactive); for `O=C(Cc1cc(=O)[nH][nH]1)N/N=C/c1ccccc1[N+](=O)[O-]`, -0.39% (inactive).
For `C/C(=N\NC(=O)Cc1cc(=O)[nH][nH]1)c1cccc([N+](=O)[O-])c1`, the growth inhibition was 2.86% (inactive).
The same measure, in the same setting: for `CC(C)CCn1c(N)c(C(=O)NCc2cccs2)c2nc3ccccc3nc21` the value was -0.29% (inactive); for `Cc1ccc(SCC2=NNC(=O)C2)cc1`, 5.45% (inactive).
In the case of `Cc1ccsc1/C=N/NC(=O)Cc1cc(=O)[nH][nH]1`, the growth inhibition is -3.09% (inactive).
For `COc1ccc(/C=C2/C(=O)N(c3ccccc3)N=C2C)c(OC)c1`, the growth inhibition is 4.59% (inactive).
The same measure, in the same setting: the figure for `CCOC(=O)C/C(C)=N/NC(=O)COc1ccccc1C` is 2.99% (inactive); for `O=C(Cc1cc(=O)[nH][nH]1)N/N=C/c1c(Cl)cccc1Cl` it is 9.07% (inactive); for `CC(=O)N(C1CC(C)C(C#N)(C#N)C1(C#N)C#N)N(C)C` (centres undefined) it is -7.63% (inactive).
Still for that read-out and setting: the figure for `O=C(Cc1cc(=O)[nH][nH]1)N/N=C/c1cccc2ccccc12` is 0.57% (inactive).
On the same count and under the same terms, for `O=C(Cc1cc(=O)[nH][nH]1)N/N=C/c1cccc(Cl)c1Cl` the value was -0.74% (inactive) and -0.13% (inactive); for `CC(=O)N1CCC2(CC1)C(C#N)=C(N)Oc1n[nH]c(CSc3ccc(C)cc3)c12`, 1.12% (inactive).
On to `CCOc1ccc(-c2[nH]nc3c2C(c2ccc(O)cc2)C(C#N)=C(N)O3)cc1` (centres undefined), for which the growth inhibition is -1.9% (inactive).
Consider `O=C1CC(CSc2ccc(Cl)cc2)=NN1`, for which the growth inhibition was -0.64% (inactive).
Same read-out and setting: for `N#CC1=C(N)Oc2n[nH]c(-c3cccs3)c2C1c1ccsc1` (centres undefined) the value was 2.91% (inactive).
In the case of `O=C(Cc1cc(=O)[nH][nH]1)N/N=C/C(Cl)=C/c1ccccc1`, the growth inhibition was 6.66% (inactive).
With `COc1cccc(-c2[nH]nc3c2C(c2ccsc2)C(C#N)=C(N)O3)c1` (centres undefined), the growth inhibition was 5.86% (inactive).
Turning to `O=C1NC2=C(CCc3ccccc32)C(c2ccccc2)N1` (centres undefined), the growth inhibition was 1.42% (inactive).
In the case of `Cc1ccccc1-c1nc(CN(C)C(C)c2ccon2)c(C)o1` (centres undefined), the growth inhibition was 4.51% (inactive).

Another test deals with M. tuberculosis H37Rv growth inhibition. Described as above. The conditions noted are these: measured here: H37Rv growth IC50.
For orientation: IC50 means the concentration at which inhibition is half-maximal. The low end stands for greater potency, the high end for weaker potency. On to `CC(C)(C)C1CCc2sc(C(=O)NNC(=O)CCl)cc2C1` (centres undefined), for which the IC50 was determined as 6.29 µM.
As for `Cc1cc(C)cc(Cn2ncc(Cl)c(Cl)c2=O)c1`, the IC50 was 11.7 µM.
